Laboratory results taken from patent US20250312329A1, “MODIFIED RELEASE NICORANDIL COMPOUND FORMULATIONS” (AUXILIUS PHARMA SPOLKA Z OGRANICZONA ODPOWIEDZIALNOSCIA, priority 2021, published 2025).

Assays:
[1] = Loss of drying (LOD) of nicorandil/excipient powder blends; assay type: physicochemical; settings: 1:1 excipient/API powder blend
Text: To better understand the stability of nicorandil formulations according to the invention at an ingredient level, the following powder blend combinations were generated and analyzed: • NCD+HPMC • NCD+Starch • NCD+MCC • NCD+Magnesium stearate • NCD+Mannitol (not used in current formulation) • NCD only […]

[2] = tested on: patients with stable angina; settings: cited from earlier work
[3] = Excipient/API powder blend stability: impurities and NCD content initially and after storage; assay type: physicochemical
Description: To better understand the stability of nicorandil formulations according to the invention at an ingredient level, the following powder blend combinations were generated and analyzed: • NCD+HPMC • NCD+Starch • NCD+MCC • NCD+Magnesium stearate • NCD+Mannitol (not used in current formulation) • NCD only […] These compositions were further analyzed (N=2) for impurities ([…]) and NCD content both initially and after 2 or 4 weeks of storage at accelerated stability testing conditions (40° C.) (per US FDA typical standards/procedures) or room temperature conditions (25° C.). Unknown impurities (“Unk. Imps.”) were also measured and the sum of all measured impurities (“Sum Imps.”) calculated.

[4] = in vivo; cited from earlier work

O=C(NCCO[N+](=O)[O-])c1cccnc1 [Nicorandil, N-[2-(Nitro-oxy)ethyl]-3-pyridine carboxamide]
LOD (%) [1]: 0.28%
composite endpoint of coronary heart disease death, non-fatal MI or unplanned hospital admission with chest pain ([2]; IONA study, versus placebo, average 1.6 years): reduction in the composite endpoint
reduction in all-cause mortality ([2]; JCAD study, average 2.7 years): 35%
reduction in cardiac death ([2]; JCAD study, average 2.7 years): 56%
Imp A ([3]; T = 0): 0.00 Weight Percent
Imp B ([3]; T = 0): 0.01 Weight Percent
Imp C ([3]; T = 0): 0.01 Weight Percent
Imp D ([3]; T = 0): 0.11 Weight Percent
Mass Balance ([3]; T = 0): 98.60 Weight Percent
NCD ([3]; T = 0): 98.40 Weight Percent
Sum Imps. ([3]; T = 0): 0.20 Weight Percent
Unk. Imps. ([3]; T = 0): 0.06 Weight Percent
Imp A ([3]; T = 2 weeks, 40° C.): 0.00 Weight Percent
Imp B ([3]; T = 2 weeks, 40° C.): 0.04 Weight Percent
Imp C ([3]; T = 2 weeks, 40° C.): 0.05 Weight Percent
Imp D ([3]; T = 2 weeks, 40° C.): 0.22 Weight Percent
Mass Balance ([3]; T = 2 weeks, 40° C.): 100.01 Weight Percent
NCD ([3]; T = 2 weeks, 40° C.): 99.52 Weight Percent
Sum Imps. ([3]; T = 2 weeks, 40° C.): 0.49 Weight Percent
Unk. Imps. ([3]; T = 2 weeks, 40° C.): 0.18 Weight Percent
Imp A ([3]; T = 4 weeks, 25° C.): 0.00 Weight Percent
Imp B ([3]; T = 4 weeks, 25° C.): 0.00 Weight Percent
Imp C ([3]; T = 4 weeks, 25° C.): 0.00 Weight Percent
Imp D ([3]; T = 4 weeks, 25° C.): 0.12 Weight Percent
Mass Balance ([3]; T = 4 weeks, 25° C.): 108.41 Weight Percent
NCD ([3]; T = 4 weeks, 25° C.): 108.13 Weight Percent
Sum Imps. ([3]; T = 4 weeks, 25° C.): 0.29 Weight Percent
Unk. Imps. ([3]; T = 4 weeks, 25° C.): 0.17 Weight Percent
elimination half-life [4]: approximately 1 hour
